In patent publication US20250248955A1, “PHENYL ACRYLIC ACID COMPOUND, AND PREPARATION METHOD AND APPLICATION THEREOF” (LONGIVITRON (SUZHOU) BIOTECHNOLOGY CO., LTD, priority 2022, published 2025):

Target: ACAT1 (Homo sapiens (Human), UniProt P24752)
Experiment: ACAT1 small molecule inhibitor screening (enzyme activity, IC50)
Type: biochemical
Settings: summary of Table 1; unit given as mol/L
Protocol: ACAT1 can catalyze two molecules of acetyl coenzyme A to reversibly form acetoacetyl coenzyme A. Its activity was measured through the reaction between ACAT1-catalyzed substrate acetoacetyl-coenzyme A and coenzyme A, from which the product acetyl-coenzyme A is produced. Since acetoacetyl-coenzyme A is specifically absorbed in a specific spectrum, the impact on the enzyme activity of ACAT1 can be reflected through the detection of an increase or decrease of absorption in a specific spectrum.
ACAT1 recombinant proteins were expressed and purified by Escherichia coli, and the concentration of ACAT1 recombinant proteins obtained was 1 mg/mL. The buffers adopted for ACAT1 small molecule inhibitor screening were 50 mM Tris-HCl (pH 8.1), 20 mM MgCl2, and 40 mM KCl. In 200 μL of enzyme catalytic system, 1 μL of ACAT1 recombinant proteins, the substrate acetyl-coenzyme A whose final concentration was changed from 25 μM to 100 μM through a CPM probe, and small molecule inhibitors at different concentrations were added, respectively. The measurement was carried out through a microplate reader (Biotek Synergy H1) and using excitation light at 355 nm and emission light at 460 nm, and the IC50 of the inhibitors was calculated through software Prism 7.0.

ACAT1, sequence (P24752 34-427): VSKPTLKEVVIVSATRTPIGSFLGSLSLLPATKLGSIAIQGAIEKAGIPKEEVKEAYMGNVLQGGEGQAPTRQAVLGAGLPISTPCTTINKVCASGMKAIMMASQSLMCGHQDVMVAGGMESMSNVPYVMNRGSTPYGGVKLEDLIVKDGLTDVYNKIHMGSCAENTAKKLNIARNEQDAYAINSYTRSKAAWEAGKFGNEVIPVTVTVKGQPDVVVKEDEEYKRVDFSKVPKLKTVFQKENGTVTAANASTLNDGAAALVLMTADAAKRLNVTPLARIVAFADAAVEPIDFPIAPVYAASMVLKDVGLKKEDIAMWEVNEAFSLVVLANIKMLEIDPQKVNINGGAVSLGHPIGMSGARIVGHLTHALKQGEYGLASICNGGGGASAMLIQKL

Row | IC50 [µM] | Compound
1 | < 100 | COc1ccc(CCOc2ccc(NC(=O)/C=C/c3ccc(O)c(O)c3)cc2)cc1 [Compound M5]
2 | < 100 | Cc1ccc(CCOc2ccc(NC(=O)/C=C/c3ccc(O)c(O)c3)cc2)cc1 [Compound M7]
3 | < 100 | COc1ccc(CCOc2ccc(NC(=O)/C=C/c3ccc(O)c(O)c3)cc2)cc1OC [Compound M9]
4 | < 100 | COc1cc(CCOc2ccc(NC(=O)/C=C/c3ccc(O)c(O)c3)cc2)cc(OC)c1OC [Compound M10]
5 | < 100 | COCOc1ccc(/C=C/C(=O)Nc2ccc(OCCc3ccc(OC)cc3)cc2)cc1OCOC [Compound M12]
6 | < 100 | COCOc1ccc(/C=C/C(=O)Nc2ccc(OCCc3cc(OC)c(OC)c(OC)c3)cc2)cc1OCOC [Compound M17]
